# Results from US5824653A, “Anthelmintic compositions for equidae” (priority 1994, dated 1998).
# Tests used:
# Parascaris equorum [1] = experiment: Trial 2: modified critical test, efficacy against Parascaris equorum in horses; type: in vivo; conditions: Trial 2, horses
# Experimental: (§1) The method of evaluating the activity of the formulation was a modified critical test (Lyons et al., 1986) which involved killing the horses 24 hours after treatment.
# (§2) Efficacy is the number of worms count dead and removed versus the number of worms count alive and not removed (scolex attached for Anaplocephala perfoliata).
# (§3) A trial involving Ivermectin drench (1 ml per 10 kg of body weight equivalent to 0.2 mg of Ivermectin per kg B.W.), praziquantel drench (0.5 to 2 mg of praziquantel per kg of body weight), and formulations in accordance with Examples 6, 7 and 8.
# (§4) Seven groups of 6 horses per group were involved in the study. Area of origin of the horses was well known for having internal parasitism problem and specifically tapeworms (Anoplocephala perfoliata) infestation.
# Strongylidase [2] = experiment: Trial 2: modified critical test, efficacy against Strongylidase in horses; type: in vivo; conditions: Trial 2, horses
# Experimental: as §1, §2, §3, §4
# Anoplocephala perfoliata [3] = experiment: Trial 2: modified critical test, efficacy against Anoplocephala perfoliata in horses; type: in vivo; conditions: Trial 2, horses
# Experimental: as §1, §2, §3, §4
# Gasterophilus spp. [4] = experiment: Trial 2: modified critical test, efficacy against Gasterophilus spp. in horses; type: in vivo; conditions: Trial 2, horses
# Experimental: as §1, §2, §3, §4
# [5] = cited from earlier work
# Gasterophilus spp. [6] = experiment: Trial 1: modified critical test, efficacy against Gasterophilus spp. in horses; type: in vivo; conditions: Trial 1, horses
# Experimental: as §1, §2
# (§5) A trial involving abamectin paste (1 ml per 20 kg of body weight equivalent to 0.2 mg of Abamectin per kg B.W.), praziquantel paste (0.1 to 5 mg of Praziquantel per kg of body weight), and formulations in accordance with examples 1,2,3,4 and 5.
# (§6) Eleven groups of ten horses per group were involved in the study. Area of origin of the horses was well known for having internal parasitism problem and specifically tapeworms (Anoplocephala perfoliata) infestation.
# Parascaris equorum [7] = experiment: Trial 1: modified critical test, efficacy against Parascaris equorum in horses; type: in vivo; conditions: Trial 1, horses
# Experimental: as §1, §2, §5, §6
# Anoplocephala perfoliata [8] = experiment: Trial 1: modified critical test, efficacy against Anoplocephala perfoliata in horses; type: in vivo; conditions: Trial 1, horses
# Experimental: as §1, §2, §5, §6
# Strongylidase [9] = experiment: Trial 1: modified critical test, efficacy against Strongylidase in horses; type: in vivo; conditions: Trial 1, horses
# Experimental: as §1, §2, §5, §6
# [10] = Biodisponibility of praziquantel in horses; type: in vivo; conditions: paste formula
compound,measurement,setting,value
CC[C@H](C)[C@H]1O[C@]2(CC[C@@H]1C)C[C@@H]1C[C@@H](C/C=C(\C)[C@@H](O[C@H]3C[C@H](OC)[C@@H](O[C@H]4C[C@H](OC)[C@@H](O)[C@H](C)O4)[C@H](C)O3)[C@@H](C)/C=C/C=C3\CO[C@@H]4[C@H](O)C(C)=C[C@@H](C(=O)O1)[C@]34O)O2 [Ivermectin],% Efficacy Parascaris equorum,Parascaris equorum [1]; ivermectin 0.2 mg/kg,100%
same,% Efficacy Strongylidase,Strongylidase [2]; ivermectin 0.2 mg/kg,100%
same,% Efficacy Anoplocephala perfoliata,Anoplocephala perfoliata [3]; ivermectin 0.2 mg/kg,0%
same,% Efficacy Gasterophilus spp.,Gasterophilus spp. [4]; ivermectin 0.2 mg/kg,100%
"O=C(C1CCCCC1)N1CC(=O)N2CCc3ccccc3C2C1 (stereo not drawn) [Praziquantel, 2(cyclohexylcarbonyl)-1,2,3,6,7,11b-hexahydro-4H-pyrazino[2,1-a]isoquinolin-4-one]",solubility in water,[5],relatively insoluble
same,% Efficacy Gasterophilus spp.,Gasterophilus spp. [6]; praziquantel 0.1 mg/kg,0%
same,% Efficacy Gasterophilus spp.,Gasterophilus spp. [6]; praziquantel 0.5 mg/kg,0%
same,% Efficacy Gasterophilus spp.,Gasterophilus spp. [6]; praziquantel 1 mg/kg,0%
same,% Efficacy Gasterophilus spp.,Gasterophilus spp. [6]; praziquantel 2 mg/kg,0%
same,% Efficacy Gasterophilus spp.,Gasterophilus spp. [6]; praziquantel 5 mg/kg,0%
same,% Efficacy Parascaris equorum,Parascaris equorum [7]; praziquantel 0.1 mg/kg,0%
same,% Efficacy Parascaris equorum,Parascaris equorum [7]; praziquantel 0.5 mg/kg,0%
same,% Efficacy Parascaris equorum,Parascaris equorum [7]; praziquantel 1 mg/kg,0%
same,% Efficacy Parascaris equorum,Parascaris equorum [7]; praziquantel 2 mg/kg,0%
same,% Efficacy Parascaris equorum,Parascaris equorum [7]; praziquantel 5 mg/kg,0%
same,% Efficacy Parascaris equorum,Parascaris equorum [1]; praziquantel 0.5 mg/kg,0%
same,% Efficacy Parascaris equorum,Parascaris equorum [1]; praziquantel 1 mg/kg,0%
same,% Efficacy Parascaris equorum,Parascaris equorum [1]; praziquantel 2 mg/kg,0%
same,% Efficacy Anoplocephala perfoliata,Anoplocephala perfoliata [8]; praziquantel 0.1 mg/kg,0%
same,% Efficacy Anoplocephala perfoliata,Anoplocephala perfoliata [8]; praziquantel 0.5 mg/kg,27%
same,% Efficacy Anoplocephala perfoliata,Anoplocephala perfoliata [8]; praziquantel 1 mg/kg,51%
same,% Efficacy Anoplocephala perfoliata,Anoplocephala perfoliata [8]; praziquantel 2 mg/kg,71%
same,% Efficacy Anoplocephala perfoliata,Anoplocephala perfoliata [8]; praziquantel 5 mg/kg,33%
same,% Efficacy Strongylidase,Strongylidase [9]; praziquantel 0.1 mg/kg,0%
same,% Efficacy Strongylidase,Strongylidase [9]; praziquantel 0.5 mg/kg,0%
same,% Efficacy Strongylidase,Strongylidase [9]; praziquantel 1 mg/kg,0%
same,% Efficacy Strongylidase,Strongylidase [9]; praziquantel 2 mg/kg,0%
same,% Efficacy Strongylidase,Strongylidase [9]; praziquantel 5 mg/kg,0%
same,% Efficacy Strongylidase,Strongylidase [2]; praziquantel 0.5 mg/kg,0%
same,% Efficacy Strongylidase,Strongylidase [2]; praziquantel 1 mg/kg,0%
same,% Efficacy Strongylidase,Strongylidase [2]; praziquantel 2 mg/kg,0%
same,% Efficacy Anoplocephala perfoliata,Anoplocephala perfoliata [3]; praziquantel 0.5 mg/kg,21%
same,% Efficacy Anoplocephala perfoliata,Anoplocephala perfoliata [3]; praziquantel 1 mg/kg,43%
same,% Efficacy Anoplocephala perfoliata,Anoplocephala perfoliata [3]; praziquantel 2 mg/kg,59%
same,% Efficacy Gasterophilus spp.,Gasterophilus spp. [4]; praziquantel 0.5 mg/kg,0%
same,% Efficacy Gasterophilus spp.,Gasterophilus spp. [4]; praziquantel 1 mg/kg,0%
same,% Efficacy Gasterophilus spp.,Gasterophilus spp. [4]; praziquantel 2 mg/kg,0%
same,biodisponibility of praziquantel,[10],better biodisponibility
Abamectin,% Efficacy Gasterophilus spp.,Gasterophilus spp. [6]; abamectin 0.2 mg/kg,100%
same,% Efficacy Parascaris equorum,Parascaris equorum [7]; abamectin 0.2 mg/kg,100%
same,% Efficacy Anoplocephala perfoliata,Anoplocephala perfoliata [8]; abamectin 0.2 mg/kg,0%
same,% Efficacy Strongylidase,Strongylidase [9]; abamectin 0.2 mg/kg,100%
